Test results: patent publication US9211310B2, “Use of a Chinese medicine composition in preparing medicaments for treating secondary prevention of myocardial infarction” (TASLY PHARMACEUTICAL GROUP CO., LTD, priority 2010, dated 2015)

System: patients after acute myocardial infarction
Test: Life quality, Seattle Angina Questionnaire (SAQ), same clinical trial
Assay type: in vivo, human
Text: 3508 patients who were in accordance with the diagnostic standards of AMI for 28 days to 2 years and differentiated as Qi deficiency and blood stagnation syndrome by TCM were studied. 0.5 g Chinese medicine composition prepared by the method of EXAMPLE 1 (Coded as QSYQ) was administrated half an hour after meal, 3 times per day.
There were 19 questions in the Seattle angina questionnaire (SAQ), including 5 parts: physical limitation (PL), anginal stability (AS), anginal frequency (AF), treatment satisfaction (TS) and disease perception (DP). After being given necessary explanation by doctors, the questions were answered independently by patients.
They included the overall survival time, angina pectoris score, TCM symptom score and life quality score, where angina pectoris score, TCM symptom score and life quality score were evaluated at randomization, in 1st, 3rd, 6th, 9th, 12th month after treatment and 18th month after follow-up.
All evaluation results of SAQ were described during the period of observation, and Wilcoxon rank sum test was used for inter-group comparison.
The evaluation results in the SAQ were depicted in different observations, and inter-group comparison was tested by Wilcoxon Rank-sum test.

CC(=O)Oc1ccccc1C(=O)O [Control group, aspirine]
SAQ 3rd question: ≧4 times per day, cases (3 months after treatment, PP): 6 | SAQ Question 1-3: Mildly limited, number of patients (3 months after treatment, PP): 81 | SAQ Question 1-3: Mildly limited, percent of patients (3 months after treatment, PP): (5.51%) | SAQ Question 1-3: Moderately limited, number of patients (3 months after treatment, PP): 16 | SAQ Question 1-3: Moderately limited, percent of patients (3 months after treatment, PP): (1.09%) | SAQ Question 1-3: Not limited, number of patients (3 months after treatment, PP): 1103 | SAQ Question 1-3: Not limited, percent of patients (3 months after treatment, PP): (75.03%) | SAQ Question 1-3: Other reason, number of patients (3 months after treatment, PP): 8 | SAQ Question 1-3: Other reason, percent of patients (3 months after treatment, PP): (0.54%) | SAQ Question 1-3: Severely limited, number of patients (3 months after treatment, PP): 5 | SAQ Question 1-3: Severely limited, percent of patients (3 months after treatment, PP): (0.34%) | SAQ Question 1-3: Slightly limited, number of patients (3 months after treatment, PP): 257 | SAQ Question 1-3: Slightly limited, percent of patients (3 months after treatment, PP): (17.48%) | SAQ Question 1-4: Mildly limited, number of patients (3 months after treatment, PP): 278 | SAQ Question 1-4: Mildly limited, percent of patients (3 months after treatment, PP): (18.95%) | SAQ Question 1-4: Moderately limited, number of patients (3 months after treatment, PP): 105 | SAQ Question 1-4: Moderately limited, percent of patients (3 months after treatment, PP): (7.16%) | SAQ Question 1-4: Not limited, number of patients (3 months after treatment, PP): 559 | SAQ Question 1-4: Not limited, percent of patients (3 months after treatment, PP): (38.10%) | SAQ Question 1-4: Other limited, number of patients (3 months after treatment, PP): 11 | SAQ Question 1-4: Other limited, percent of patients (3 months after treatment, PP): (0.75%) | SAQ Question 1-4: Severely limited, number of patients (3 months after treatment, PP): 22 | SAQ Question 1-4: Severely limited, percent of patients (3 months after treatment, PP): (1.50%) | SAQ Question 1-4: Slightly limited, number of patients (3 months after treatment, PP): 492 | SAQ Question 1-4: Slightly limited, percent of patients (3 months after treatment, PP): (33.54%) | SAQ Question 1-5: Mildly limited, number of patients (3 months after treatment, PP): 268 | SAQ Question 1-5: Mildly limited, percent of patients (3 months after treatment, PP): (18.27%) | SAQ Question 1-5: Moderately limited, number of patients (3 months after treatment, PP): 137 | SAQ Question 1-5: Moderately limited, percent of patients (3 months after treatment, PP): (9.34%) | SAQ Question 1-5: Not limited, number of patients (3 months after treatment, PP): 594 | SAQ Question 1-5: Not limited, percent of patients (3 months after treatment, PP): (40.49%) | SAQ Question 1-5: Other reasons, number of patients (3 months after treatment, PP): 11 | SAQ Question 1-5: Other reasons, percent of patients (3 months after treatment, PP): (0.75%) | SAQ Question 1-5: Severely limited, number of patients (3 months after treatment, PP): 16 | SAQ Question 1-5: Severely limited, percent of patients (3 months after treatment, PP): (1.09%) | SAQ Question 1-5: Slightly limited, number of patients (3 months after treatment, PP): 441 | SAQ Question 1-5: Slightly limited, percent of patients (3 months after treatment, PP): (30.06%) | SAQ Question 1-9: Mildly limited, % of cases (3 months after treatment, PP): (18.45%) | SAQ Question 1-9: Mildly limited, cases (3 months after treatment, PP): 264 | SAQ Question 1-9: Moderately limited, % of cases (3 months after treatment, PP): (20.48%) | SAQ Question 1-9: Moderately limited, cases (3 months after treatment, PP): 293 | SAQ Question 1-9: Not limited, % of cases (3 months after treatment, PP): (3.70%) | SAQ Question 1-9: Not limited, cases (3 months after treatment, PP): 53 | SAQ Question 1-9: Other reaons, % of cases (3 months after treatment, PP): (6.08%) | SAQ Question 1-9: Other reaons, cases (3 months after treatment, PP): 87 | SAQ Question 1-9: Severely limited, % of cases (3 months after treatment, PP): (39.41%) | SAQ Question 1-9: Severely limited, cases (3 months after treatment, PP): 564 | SAQ Question 1-9: Slightly limited, % of cases (3 months after treatment, PP): (11.88%) | SAQ Question 1-9: Slightly limited, cases (3 months after treatment, PP): 170 | SAQ 2nd question: 6, % of cases (6 months after treatment, FAS): (0.00%) | SAQ 2nd question: 6, cases (6 months after treatment, FAS): 0 | SAQ 2nd question: Clearly increased, % of cases (6 months after treatment, FAS): (0.98%) | SAQ 2nd question: Clearly increased, cases (6 months after treatment, FAS): 17 | SAQ 2nd question: Clearly reduced, % of cases (6 months after treatment, FAS): (22.98%) | SAQ 2nd question: Clearly reduced, cases (6 months after treatment, FAS): 400 | SAQ 2nd question: Same, % of cases (6 months after treatment, FAS): (37.33%) | SAQ 2nd question: Same, cases (6 months after treatment, FAS): 650 | SAQ 2nd question: Slightly increased, % of cases (6 months after treatment, FAS): (3.68%) | SAQ 2nd question: Slightly increased, cases (6 months after treatment, FAS): 64 | SAQ 2nd question: Slightly reduced, % of cases (6 months after treatment, FAS): (35.04%) | SAQ 2nd question: Slightly reduced, cases (6 months after treatment, FAS): 610 | SAQ 3rd question: 1-2 times per week, % of cases (6 months after treatment, FAS): (35.04%) | SAQ 3rd question: 1-2 times per week, cases (6 months after treatment, FAS): 610 | SAQ 3rd question: 1-3 times per day, % of cases (6 months after treatment, FAS): (3.68%) | SAQ 3rd question: 1-3 times per day, cases (6 months after treatment, FAS): 64 | SAQ 3rd question: <1 time per week, % of cases (6 months after treatment, FAS): (22.98%) | SAQ 3rd question: <1 time per week, cases (6 months after treatment, FAS): 400 | SAQ 3rd question: No onset, % of cases (6 months after treatment, FAS): (0.00%) | SAQ 3rd question: No onset, cases (6 months after treatment, FAS): 0 | SAQ 3rd question: ≧3 times per week, % of cases (6 months after treatment, FAS): (37.33%) | SAQ 3rd question: ≧3 times per week, cases (6 months after treatment, FAS): 650 | SAQ 3rd question: ≧4 times per day, % of cases (6 months after treatment, FAS): (0.98%) | SAQ 3rd question: ≧4 times per day, cases (6 months after treatment, FAS): 17 | SAQ Question 1-3: Mildly limited, number of patients (6 months after treatment, FAS): 86 | SAQ Question 1-3: Mildly limited, percent of patients (6 months after treatment, FAS): (4.93%) | SAQ Question 1-3: Moderately limited, number of patients (6 months after treatment, FAS): 20 | SAQ Question 1-3: Moderately limited, percent of patients (6 months after treatment, FAS): (1.15%)
